The numbers were not newly measured in patent US4231928A, “Antibacterial agents” (priority 1979, dated 1980), which cites them from elsewhere.

The subject of this data set is Pseudomonas aeruginosa. As to conditions: prior art penicillins; cited from earlier work.

SMILES strings stand for the structures.

Turning to `CC1(C)S[C@@H]2[C@H](NC(=O)[C@H](C(=O)O)c3ccsc3)C(=O)N2[C@H]1C(=O)O` [ticarcillin], the “potency against Pseudomonas aeruginosa (in words)” value is listed as “only a relatively low potency”.
